Laboratory results reported in publication PMC7036909, “Discovery of Selective SIRT2 Inhibitors as Therapeutic Agents in B-Cell Lymphoma and Other Malignancies” (Molecules, 2020).
“And” between values parts separate entries of the source, which are not always exact repeats. Identical values can stand only once.

How the values were obtained:
[1] = test system: Daudi (Burkitt lymphoma) cells; assay: Cell viability (CellTiter-Glo), Daudi; format: cell-based; conditions: Homo sapiens, 72 h, cellular ATP, read-out: Daudi LC50
Protocol: (§1) With selective SIRT2 inhibitors in hand, we proceeded to evaluate cytotoxicity of our compounds in Daudi, Raji (Burkitt lymphoma) and OCI-Ly8-LAM-53 (OCI, a representative of several Diffuse Large B-Cell Lymphoma lines; DLBCL) cell lines. Briefly, cells were plated in 96-well plates and treated with inhibitors at desired concentrations for 72 h. Cellular viability was determined by measuring the amount of cellular ATP using CellTiter-Glo assay kit (Promega) and normalized against DMSO-treated controls. […] Selected inhibitors were further evaluated in an expanded panel of cancer cell lines including breast cancer (MCF-7 and MDA-MB231), prostate cancer (PC-3) and glioblastoma multiforme (U-251). […] However, the trend in potency as a function of the structure is consistent with the results obtained against lymphoma cell lines. […] . Cell lines were obtained from ATCC (Manassas, VA, USA) and were grown under standard conditions as recommended. For viability assays, 3000 cells per well were dispensed into 96-well plates and treated with test compounds (final DMSO concentration 0.25%). Cells were incubated with test compounds (or DMSO controls) for 72 h or 5 days as noted at 37 °C in 5% CO2 and viability was determined using the CellTiter-Glo Assay (Promega Corp.) according to manufacturer’s instructions.

SIRT1 [2] = biological target: T1, SIRT1 (Homo sapiens, UniProt Q96EB6); assay: SIRT-Glo enzyme inhibition assay, SIRT1; conditions: for inhibition at 50 µM: read-out: SIRT1 percentage inhibition at 50 µM compound, 50 µM compound
T1 sequence (Q96EB6 1-747): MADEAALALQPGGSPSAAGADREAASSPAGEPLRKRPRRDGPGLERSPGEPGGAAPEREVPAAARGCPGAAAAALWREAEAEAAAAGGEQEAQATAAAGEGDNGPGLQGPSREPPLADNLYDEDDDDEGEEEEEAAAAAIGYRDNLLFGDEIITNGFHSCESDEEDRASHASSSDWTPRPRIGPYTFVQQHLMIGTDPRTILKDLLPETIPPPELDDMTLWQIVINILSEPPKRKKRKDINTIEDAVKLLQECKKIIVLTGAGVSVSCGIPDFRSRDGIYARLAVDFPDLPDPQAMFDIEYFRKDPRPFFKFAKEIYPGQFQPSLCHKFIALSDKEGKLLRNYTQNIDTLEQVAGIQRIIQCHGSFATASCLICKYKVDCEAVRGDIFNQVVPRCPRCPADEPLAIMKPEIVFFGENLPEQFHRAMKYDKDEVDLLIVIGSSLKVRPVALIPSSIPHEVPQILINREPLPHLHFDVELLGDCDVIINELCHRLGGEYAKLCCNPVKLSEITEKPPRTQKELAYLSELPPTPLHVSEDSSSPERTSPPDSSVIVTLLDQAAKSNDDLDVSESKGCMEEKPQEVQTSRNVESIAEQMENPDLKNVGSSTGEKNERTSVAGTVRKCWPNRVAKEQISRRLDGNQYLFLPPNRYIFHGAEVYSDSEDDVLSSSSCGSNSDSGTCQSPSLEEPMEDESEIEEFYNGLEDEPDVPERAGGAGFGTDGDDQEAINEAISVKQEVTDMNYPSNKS
Protocol: (§2) SIRT1, SIRT2, and SIRT3 were purchased from Cayman Chemical. Enzyme inhibition assays were performed in 96-well black plates using the SIRT-Glo Assay (Promega Corp.) according to the manufacturer’s instructions. Compounds were dissolved in 100% DMSO and to make 5- or 10-mM stock solutions. For initial enzyme inhibition tests, 50 µM of inhibitory concentration was used. […] IC50 values were determined in triplicate and reported values are averages of two independent experiments.

SIRT3 = biological target: T2, SIRT3 (Homo sapiens, UniProt Q9NTG7); assay: SIRT-Glo enzyme inhibition assay, SIRT3; conditions: for inhibition at 50 µM: read-out: SIRT3 percentage inhibition at 50 µM compound, 50 µM compound
T2 sequence (Q9NTG7 1-399): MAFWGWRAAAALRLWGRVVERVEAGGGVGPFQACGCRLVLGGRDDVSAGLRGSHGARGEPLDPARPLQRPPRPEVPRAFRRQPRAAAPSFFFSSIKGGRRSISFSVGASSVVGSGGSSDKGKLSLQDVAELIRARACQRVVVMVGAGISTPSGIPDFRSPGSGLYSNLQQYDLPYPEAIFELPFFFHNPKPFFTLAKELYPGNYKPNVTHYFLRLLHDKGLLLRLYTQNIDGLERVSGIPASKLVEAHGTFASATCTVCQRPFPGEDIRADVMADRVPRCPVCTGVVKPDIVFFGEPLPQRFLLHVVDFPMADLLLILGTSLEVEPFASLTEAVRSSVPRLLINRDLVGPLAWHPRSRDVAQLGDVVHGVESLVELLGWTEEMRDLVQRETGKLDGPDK
Protocol: as §2

SIRT2 = biological target: T3, SIRT2 (Homo sapiens, UniProt Q8IXJ6); assay: SIRT-Glo enzyme inhibition assay, SIRT2; conditions: for IC50: SIRT2 IC50; for inhibition at 50 µM: read-out: SIRT2 percentage inhibition at 50 µM compound, 50 µM compound
T3 sequence (Q8IXJ6 1-389): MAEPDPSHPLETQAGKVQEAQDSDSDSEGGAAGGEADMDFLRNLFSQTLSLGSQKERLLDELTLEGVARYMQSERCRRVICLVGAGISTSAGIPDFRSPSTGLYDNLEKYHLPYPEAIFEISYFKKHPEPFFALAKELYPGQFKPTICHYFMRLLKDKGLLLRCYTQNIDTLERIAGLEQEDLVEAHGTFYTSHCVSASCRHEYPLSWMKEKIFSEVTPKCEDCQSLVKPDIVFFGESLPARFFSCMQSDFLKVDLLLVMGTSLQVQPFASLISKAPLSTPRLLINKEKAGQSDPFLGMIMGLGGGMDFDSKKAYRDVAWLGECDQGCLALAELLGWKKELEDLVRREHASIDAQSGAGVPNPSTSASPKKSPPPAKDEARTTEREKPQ
Protocol: as §2

[3] = test system: U-251 glioblastoma multiforme cells; assay: Cell viability (CellTiter-Glo), U-251; format: cell-based; conditions: Homo sapiens, cellular ATP, read-out: U251 LC50
Protocol: as §1

[4] = test system: OCI-Ly8-LAM-53 (OCI, DLBCL) cells; assay: Cell viability (CellTiter-Glo), OCI; format: cell-based; conditions: 72 h, cellular ATP; read-out: OCI LC50
Protocol: as §1

[5] = test system: Raji (Burkitt lymphoma) cells; assay: Cell viability (CellTiter-Glo), Raji; format: cell-based; conditions: Homo sapiens, 72 h, cellular ATP, read-out: Raji LC50
Protocol: as §1

[6] = test system: PC-3 prostate cancer cells; assay: Cell viability (CellTiter-Glo), PC-3; format: cell-based; conditions: cellular ATP; read-out: PC3 LC50
Protocol: as §1

[7] = test system: MCF-7 breast cancer cells; assay: Cell viability (CellTiter-Glo), MCF-7; format: cell-based; conditions: Homo sapiens, MCF7; cellular ATP; read-out: MCF7 LC50
Protocol: as §1

[8] = test system: MDA-MB231 breast cancer cells; assay: Cell viability (CellTiter-Glo), MDA-MB231; format: cell-based; conditions: Homo sapiens, MDA-MB-231; cellular ATP; read-out: MDA-MB231 LC50
Protocol: as §1

SIRT1 [9] = biological target: T1, SIRT1; parameters: purchased Cayman Chemical; conditions: cited from earlier work
OCI DLBCL cells = assay: Annexin V staining assay; conditions: 5 µM
Protocol: OCI DLBCL cells were treated with 56 for 24 h. Cells were lysed and analyzed by western blot assay for cleaved poly-ADP-ribose polymerase (PARP), a well-accepted apoptosis marker [42] (Abcam, Cambridge, UK).

Structure (SMILES)	CC50 [1] [µM]	inhibition at 50 µM (SIRT1 [2]) [%]	inhibition at 50 µM (SIRT3) [%]	IC50 (SIRT2)	inhibition at 50 µM (SIRT2) [%]	CC50 [3] [µM]	CC50 [4] [µM]	CC50 [5] [µM]	CC50 [6] [µM]	CC50 [7] [µM]	selectivity for SIRT2 over SIRT1 (SIRT1 [2]; SIRT2 versus SIRT1) [fold]	selectivity for SIRT2 over SIRT3 (SIRT3; SIRT2 versus SIRT3) [fold]	CC50 [8] [µM]	IC50 (SIRT1 [9]) [µM]	Q1 (necrotic cell death) cell population (OCI DLBCL cells) [%]	Q2 (apoptotic cells) cell population (OCI DLBCL cells) [%]	Q3 cell population (OCI DLBCL cells) [%]	Q4 cell population (OCI DLBCL cells) [%]
NC(=O)CCNC(=O)C(Cc1c(O)ccc2cc(Br)ccc12)C(=O)c1ccc(Br)cc1 (stereo not shown) [Compound 51, 2-[(6-Bromo-2-hydroxynaphthalen-1-yl)methyl]-3-(4-bromophenyl)-N-(2-carbamoylethyl)-3-oxopropanamide]	19.2	20	14	0.58 µM	98	25.9	10.2	16.7										
O=C(NCCO)C(Cc1c(O)ccc2cc(Br)ccc12)C(=O)c1ccc(C(F)(F)F)cc1 (stereo not shown) [Compound 49]	12	15	27	0.27 µM	99	15.7	13.1	16.5	18.4	20.2	> 400	> 800	23.5					
NC(=O)CCNC(=O)C(Cc1c(O)ccc2cc(Br)ccc12)C(=O)c1cccc(Br)c1 (stereo not shown) [Compound 43, 2-[(6-Bromo-2-hydroxynaphthalen-1-yl)methyl]-3-(3-bromophenyl)-N-(2-carbamoylethyl)-3-oxopropanamide]	15.8	0	20	0.96 µM	89			19.4										
O=C(NCCO)C(Cc1c(O)ccc2cc(Br)ccc12)C(=O)c1ccc(Cl)cc1 (stereo not shown) [Compound 47, 2-[(6-Bromo-2-hydroxynaphthalen-1-yl)methyl]-3-(4-chlorophenyl)-N-(2-hydroxyethyl)-3-oxopropanamide]		0	5	0.96 µM	98		9.7	20.2										
N#C/C(=C\c1ccc(-c2cc(Cl)ccc2Cl)o1)C(=O)Nc1cccc2ncccc12 [AGK2, reference compound]							73.2							> 50				
NC(=O)C(Cc1c(O)ccc2cc(Br)ccc12)C(=O)c1ccc(Br)cc1 (stereo not shown) [Compound 22, 2-[(6-Bromo-2-hydroxynaphthalen-1-yl)methyl]-3-(4-bromo)-3-oxopropanamide]	7	7	42	2.5 µM	93		1.6	7.8										
CNC(=O)C(Cc1c(O)ccc2cc(Br)ccc12)C(=O)c1ccc(C(F)(F)F)cc1 (stereo not shown) [Compound 33, 2-[(6-Bromo-2-hydroxynaphthalen-1-yl)methyl]-N-methyl-3-oxo-3-[4-(trifluoromethyl)phenyl]propenamide]	14.5		6	0.59 µM	97		16.4	18.5										
NC(=O)C(Cc1c(O)ccc2cc(Br)ccc12)C(=O)c1ccc(Cl)cc1 (stereo not shown) [Compound 19, 2-[(6-Bromo-2-hydroxynaphthalen-1-yl)methyl]-3-(4-chlorophenyl)-3-oxopropanamide]	5	0	30	2.79 µM and 2.8 µM	95		8.2	7.3										
COc1cc([C@@H]2c3cc4c(cc3[C@@H](O[C@@H]3O[C@@H]5CO[C@@H](C)O[C@H]5[C@H](O)[C@H]3O)[C@H]3COC(=O)[C@H]23)OCO4)cc(OC)c1O [Etoposide, etoposide, reference compound]															5.1	59.8	26.8	8.3
CNC(=O)CCNC(=O)C(Cc1c(O)ccc2cc(Br)ccc12)C(=O)c1ccc(Cl)cc1 (stereo not shown) [Compound 54, 2-[(6-Bromo-2-hydroxynaphthalen-1-yl)methyl]-3-(4-chlorophenyl)-N-[2-(methylcarbamoyl)ethyl]-3-oxo-propanamide]	15.8	12	6	0.59 µM	99	17.3	11.2	18.5	16.5	18			23.8					
NC(=O)CCNC(=O)C(Cc1c(O)ccc2cc(Br)ccc12)C(=O)c1ccc(C(F)(F)F)cc1 (stereo not shown) [Compound 52, 2-[(6-Bromo-2-hydroxynaphthalen-1-yl)methyl]-N-(2-carbamoylethyl)-3-oxo-3-[4-(trifluoromethyl)phenyl]-propenamide]	28.2	0	21	0.65 µM	93		25.5	19.4										
O=C(NCCO)C(Cc1c(O)ccc2cc(Br)ccc12)C(=O)c1ccc(Br)cc1 (stereo not shown) [Compound 48, 2-[(6-Bromo-2-hydroxynaphthalen-1-yl)methyl]-3-(4-bromophenyl)-N-(2-hydroxyethyl)-3-oxopropanamide]	10.5	18	29	0.52 µM	96	15.8	5	10	11.8	11.8			14.7					
NC(=O)CCNC(=O)C(Cc1c(O)ccc2cc(Br)ccc12)C(=O)c1ccc(Cl)cc1 (stereo not shown) [Compound 50, 2-[(6-Bromo-2-hydroxynaphthalen-1-yl)methyl]-N-(2-carbamoylethyl)-3-(4-chlorophenyl)-3-oxopropanamide]		4	17	0.65 µM	99		11.7	19.9										
